# Reference: BindingDB's records for doi:10.1016/j.bmc.2018.09.008 (Ochanomizu University, 2018)
# Assay: Antagonist activity at AR in mouse SC3 cells assessed as inhibition of DHT-induced cell proliferation after 3 days by CCK8 assay
row,SMILES,IC50
1,COc1ccc(C(=O)Nc2cc(Oc3ccc(O)cc3)ccc2C)cc1,> 10 µM
2,COc1cccc(C(=O)Nc2ccc(Oc3ccc(O)cc3)cc2Cl)c1,1.7 µM
3,COc1ccccc1C(=O)Nc1ccc(C)c(Oc2ccc(O)cc2)c1,5.3 µM
4,COc1cccc(C(=O)Nc2ccc(Oc3ccc(O)cc3)cc2F)c1,0.65 µM
5,COc1ccc(C(=O)Nc2cccc(Oc3ccc(O)cc3)c2)cc1,> 10 µM
6,COc1ccc(C(=O)Nc2cccc(Oc3cccc(O)c3)c2)cc1,> 10 µM
7,CN(C)c1ccccc1C(=O)Nc1cccc(Oc2ccc(O)cc2)c1,6.3 µM
8,COc1ccc(C(=O)Nc2cccc(Oc3ccc(O)cc3)c2C)cc1,> 10 µM
9,COc1cccc(C(=O)Nc2ccc(Oc3ccc(O)cc3)cc2C)c1,3 µM
10,COc1cccc(C(=O)Nc2ccc(Oc3cccc(O)c3)cc2)c1,> 10 µM
11,CN(C)c1ccc(C(=O)Nc2cccc(Oc3ccc(O)cc3)c2)cc1,7.4 µM
12,COc1cccc(C(=O)Nc2ccc(Oc3ccc(O)cc3)c(F)c2F)c1,0.53 µM
13,COc1cccc(C(=O)Nc2ccc(Oc3ccc(O)cc3)cc2OC)c1,3.4 µM
14,COc1cccc(C(=O)Nc2cc(Cl)c(Oc3ccc(O)cc3)c(Cl)c2)c1,0.48 µM
15,COc1cccc(C(=O)Nc2ccc(Oc3ccc(O)cc3)c(C(F)(F)F)c2)c1,4.3 µM
16,CN(C)c1ccc(C(=O)Nc2ccc(Oc3cccc(O)c3)cc2)cc1,3.2 µM
17,COc1cccc(C(=O)Nc2ccc(Oc3ccc(O)cc3)c(Cl)c2)c1,0.48 µM
18,CN(C)c1cccc(C(=O)Nc2cccc(Oc3cccc(O)c3)c2)c1,> 10 µM
19,COc1cccc(C(=O)N(C)c2ccc(Oc3ccc(O)cc3)c(C)c2)c1,7.6 µM
20,COc1cccc(C(=O)Nc2cccc(Oc3cccc(O)c3)c2)c1,> 10 µM
21,COc1ccccc1C(=O)Nc1cccc(Oc2ccc(O)cc2)c1,> 10 µM
22,COc1cccc(C(=O)Nc2cc(F)c(Oc3ccc(O)cc3)c(F)c2)c1,0.51 µM
23,COc1cccc(C(=O)Nc2ccc(Oc3ccc(O)cc3)c(Br)c2)c1,5.7 µM
24,COc1cccc(C(=O)Nc2ccc(Oc3ccc(O)cc3)c(F)c2)c1,0.4 µM
25,COc1ccc(C(=O)Nc2ccc(C)c(Oc3ccc(O)cc3)c2)cc1,> 10 µM
